Key:
[1] = biological target: T1, 20S eukaryotic proteasome (Oryctolagus cuniculus, UniProt G1T4Q9); test: Inhibition of chymotrypsin-like activity of purified eukaryotic 20S proteasome (Suc-Leu-Leu-Val-Tyr-AMC); assay type: biochemical, rabbit; settings: for IC50: chymotrypsin-like activity, rabbit 20S proteasome
T1 construct: purchased BOSTON BIOCHEM (Cambridge, Mass.)
T1 sequence (G1T4Q9 1-263): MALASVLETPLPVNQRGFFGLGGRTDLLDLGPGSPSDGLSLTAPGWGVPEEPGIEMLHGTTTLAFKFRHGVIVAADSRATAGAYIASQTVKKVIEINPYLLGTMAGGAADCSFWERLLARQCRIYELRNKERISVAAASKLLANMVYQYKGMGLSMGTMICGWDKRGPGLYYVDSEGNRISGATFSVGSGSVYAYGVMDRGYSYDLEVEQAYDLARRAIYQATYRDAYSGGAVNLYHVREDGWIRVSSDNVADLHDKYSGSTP
In short: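 Purified rabbit 20S proteasome (0.02 μg) incubated with 20 μM Suc-LLVY-AMC for 30 min at 37° C in Tris-HCl pH 7.5, with or without compound. Chymotrypsin-like activity read as released AMC fluorescence (Ex 380 or 355 nm/Em 460 nm).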

[2] = system: 26S proteasome in a Jurkat cell lysate; test: Chymotrypsin-like activity of 26S proteasome in Jurkat cell lysate; assay type: biochemical, human; settings: 10 μM
Method: To determine the specificity of the synthetic GTP analogs, their effects were tested on the chymotrypsin-like and trypsin-like activities of the 26S proteasome in a Jurkat cell lysate. […] (+)-GCG at the same concentration inhibited ˜50% of the chymotrypsin-like activity. The potencies of (+)-EGCG and (+)-GCG were similar to those of their natural partners, respectively (FIG. 17A). […] Furthermore, none of the synthetic or control natural compounds could inhibit more than 15% of activity of a purified calpain enzyme (FIG. 17C). […] Values are mean triplicates and error bars denote standard deviations.

purified 20S proteasome = purified 20S proteasome (UniProt Q9P992); test: Inhibition of chymotrypsin-like activity of purified 20S proteasome (source not stated); assay type: biochemical; set-up: other: 1 μM; other: 10 μM; settings: 1 μM
purified 20S proteasome, sequence (Q9P992 whole entry): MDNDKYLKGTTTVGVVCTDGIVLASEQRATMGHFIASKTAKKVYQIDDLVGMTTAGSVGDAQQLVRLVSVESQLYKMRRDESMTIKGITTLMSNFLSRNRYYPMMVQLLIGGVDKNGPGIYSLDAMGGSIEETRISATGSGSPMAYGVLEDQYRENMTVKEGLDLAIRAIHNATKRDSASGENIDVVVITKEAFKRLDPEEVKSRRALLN
Method: Inhibition of purified 20S proteasome activity by natural or synthetic GTPs. Purified prokaryotic (0.5 μg) or eukaryotic (0.02 μg) 20S proteasome was incubated with 20 μM fluorogenic peptide substrate, Suc-Leu-Leu-Val-Tyr-AMC for 30 min at 37° C. in […] of assay buffer (50 mM Tris-HCl, pH 7.5), with or without a natural or synthetic tea polyphenol. After incubation, production of hydrolyzed 7-amido-4-methyl-coumarin (AMC) groups was measured using a multi-well plate VERSAFLUOR Fluorometer with an excitation filter of 380 nm and an emission filter of 460 nm (BIO-RAD), and a multi-well plate reader Wallac 1420 VICTORTM^2 with an excitation filter of 355 nm and an emission filter of 460 nm (EG&G WALLAC).

`O=C(OC1Cc2c(O)cc(O)cc2OC1c1cc(O)c(O)c(O)c1)c1cc(O)c(O)c(O)c1` (single isomer, unassigned; (+)) [(+)-EGCG] was tested, and the IC50 [1] was 170 nM, the “inhibition of chymotrypsin-like activity of 26S proteasome” value [2] was 76% and the “inhibition of proteasomal activity” value (purified 20S proteasome) was 86%.

With `O=C(OC1Cc2c(O)cc(O)cc2OC1c1cc(O)c(O)c(O)c1)c1cc(O)c(O)c(O)c1` (single isomer, unassigned; (+)) [(+)-GCG] the IC50 [1] was 270 nM, the “inhibition of chymotrypsin-like activity of 26S proteasome” value [2] was about 50% and the “inhibition of proteasomal activity” value (purified 20S proteasome) was 70%.

In the case of `O=C(O[C@@H]1Cc2c(O)cc(O)cc2O[C@@H]1c1cc(O)c(O)c(O)c1)c1cc(O)c(O)c(O)c1` [(−)-EGCG, (−)-epigallocatechin-3-gallate, reference compound], the “reversal of proteasome inhibition by SDS” value ([1]; 1 μM, 0.01% SDS added after 1 hour (SDS-post)) is reported as “could not reverse the EGCG-mediated proteasome inhibition”, the “inhibition of chymotrypsin-like activity” value ([1]; 1 μM, 5 min) is reported as 35% and the “inhibition of chymotrypsin-like activity” value ([1]; 1 μM, 30 min) is reported as 62%. For the same compound, the “inhibition of chymotrypsin-like activity” value ([1]; 1 μM, after 1 to 3 hours) was 70-80%, the “inhibition of chymotrypsin-like activity” value ([1]; 1 μM, no SDS) was “up to 75%” and the “inhibition of chymotrypsin-like activity” value ([1]; 1 μM, pre-incubation with 0.01% SDS for 1 hour (SDS-pre)) was 10-20%. It also gave an IC50 [1] of 205 nM.

In the case of `O=C(N[C@@H]1Cc2c(O)cc(O)cc2O[C@@H]1c1cc(O)c(O)c(O)c1)c1cc(O)c(O)c(O)c1` [(−)-EGCG-amide, (−)-[2R,3R]-N-[5,7-Dihydroxy-2-(3,4,5-trihydroxyphenyl)-chroman-3-yl]-3,4,5-trihydroxybenzamide], the IC50 [1] is reported as 320 nM.
